Patent publication US6020327A, “Control of hair growth” (The Central Sheffield University Hospitals NHS Trust, priority 1994, dated 2000)
Read-outs that look alike come from different tables or passages of the source.

Experiments:
aromatase [1] = biological target: T1, aromatase (Homo sapiens, UniProt P11511); test: Aromatase activity by tritiated water release assay in cultured skin fibroblasts: substrate kinetics and inhibition
T1 sequence (P11511 1-503): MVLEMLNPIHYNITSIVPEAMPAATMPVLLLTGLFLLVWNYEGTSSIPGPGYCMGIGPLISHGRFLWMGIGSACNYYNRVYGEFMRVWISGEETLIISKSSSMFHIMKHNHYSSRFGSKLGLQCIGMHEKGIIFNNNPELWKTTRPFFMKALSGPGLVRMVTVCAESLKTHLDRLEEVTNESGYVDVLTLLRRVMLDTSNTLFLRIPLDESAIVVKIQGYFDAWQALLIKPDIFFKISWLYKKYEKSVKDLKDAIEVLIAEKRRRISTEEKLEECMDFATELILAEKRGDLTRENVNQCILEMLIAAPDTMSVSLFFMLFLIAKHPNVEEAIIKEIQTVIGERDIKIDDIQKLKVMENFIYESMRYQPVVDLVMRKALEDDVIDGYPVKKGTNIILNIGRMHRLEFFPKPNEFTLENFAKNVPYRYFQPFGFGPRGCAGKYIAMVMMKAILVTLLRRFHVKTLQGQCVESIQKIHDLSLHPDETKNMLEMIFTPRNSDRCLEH
Procedure: (§2) Enzymic kinetic values were established by incubating cells with the substrate (androstenedione) in a range of concentrations.
(§3) Enzyme kinetic values were established by incubating cells with the substrate (androstenedione) in a range of concentrations.

aromatase [2] = biological target: T1, aromatase; test: Aromatase by tritiated water assay in minced scalp skin samples, with and without aromatase inhibitor; type: biochemical; design: endogenous in cells; host or cells: cultured human non-follicular skin fibroblast lines (beard, occipital scalp, frontal scalp); details: addition of 25 nmol to minced scalp skin samples
Procedure: To determine whether the results obtained using cell culture are representative of events occurring in vivo aromatase was measured by the tritiated water assay in skin samples from male and female scalp. Tissue was minced and then incubated with 1β^3 H-androstenedione together with a source of NADPH. Each assay was done in the presence and absence of an aromatase inhibitor (4OH-androstenedione). Placental tissue was used as a positive control.

[3] = test system: aromatase activity in skin fibroblasts; test: Stimulation of fibroblast aromatase by pre-incubating cultured skin fibroblasts with hormones (tritiated water release assay); type: cell-based, human; details: for fold induction at 0.01 µM: Homo sapiens, Skin fibroblast
Procedure: (§1) In a preliminary study to investigate the above hypothesis we have measured aromatase activity in cultured human hair follicle dermal papilla cell lines and non-follicular skin fibroblasts from body sites with different responses to androgens. Aromatase was measured using the tritiated water released assay (13). The results are summarised as follows:
Fibroblast aromatase was stimulated by pre-incubating cells with testosterone at physiological concentrations (10 nmol). 19 cell lines were studied. Mean fold increase in aromatase activity (+/- SEM) was 2.69+/-0.38 (p<0.02 paired test). In separate experiments on three cell lines the response to a range of concentrations of testosterone and DHT was studied. Testosterone gave a twofold increase in aromatase maximal at 10 nmol. At the same concentration in response to DHT was over twice as great (4.3 fold).
Fibroblast aromatase was stimulated by pre-incubating the cells with testosterone at a physiological concentration (10 nmol). 19 cell lines were studied. Mean fold increase in aromatase activity (+/- SEM) was 2.69+/-0.38 (p<0.02 paired t test). In separate experiments on three cell lines the response to a range of concentrations of testosterone and DHT was studied. Testosterone gave a 2 fold increase in aromatase maximal at 10 nmol. At the same concentration the response to DHT was over twice as great (4.3 fold).

[4] = test system: aromatase activity in hair follicle dermal papilla cells; test: Induction of aromatase in cultured hair follicle dermal papilla cells (tritiated water release assay); type: cell-based, human
Procedure: as §1
No aromatase was detected in hair follicle dermal papilla cells cultured through any of the above sites (fourteen cell lines).
No aromatase was detected in hair follicle dermal papilla cells cultured from any of the above sites (14 cell lines).

balding = details: topical application, humans; cited from earlier work
female hair loss = details: several small trials, taken orally; cited from earlier work
[5] = substrate: C[C@]12CCC(=O)C=C1CC[C@@H]1[C@@H]2CC[C@]2(C)C(=O)CC[C@@H]12; test: cells, lysate or membranes; details: other: skin fibroblast lines from beard, occipital scalp and frontal scalp; no difference between the three sites
Procedure: as §2, §3

[6] = read-out: Fold increase in aromatase

## C[C@]12CCC(=O)C(O)=C1CC[C@@H]1[C@@H]2CC[C@]2(C)C(=O)CC[C@@H]12 [4-OH androstenedione]
Aromatase [1]
  IC50: ~25 nM
Aromatase [1]; three cell lines
  Type of inhibition of fibroblast aromatase (kinetic studies): irreversible competitive inhibition
Aromatase [2]
  Effect on aromatase activity in scalp tissue: reduced activity to background levels

## C[C@]12CCC(=O)C[C@@H]1CC[C@@H]1[C@@H]2CC[C@]2(C)[C@@H](O)CC[C@@H]12 [DHT, dihydrotestosterone]
[3]; [6]
  fold induction at 0.01 µM: 4.3

## C[C@@H]1C[C@H]2[C@@H]3CCC4=CC(=O)C=C[C@]4(C)[C@@]3(F)[C@@H](O)C[C@]2(C)[C@@]1(O)C(=O)CO [Dexamethasone]
[3]; skin fibroblasts
  Stimulation of aromatase in fibroblasts: 10-20 fold
[4]
  Induction of aromatase in dermal papilla cells: induced aromatase

## Nc1cc(N2CCCCC2)nc(N)[n+]1[O-] [Minoxidil]
balding
  Subjects with modest recovery in early balding: about 30 % of subjects

## CC(=O)O[C@]1(C(C)=O)CC[C@H]2[C@@H]3C=C(Cl)C4=CC(=O)[C@@H]5C[C@@H]5[C@]4(C)[C@H]3CC[C@@]21C [cyproterone acetate]
[3]; skin fibroblasts, androgen receptor blockade
  Effect on the aromatase response to testosterone and DHT: inhibited
Female hair loss
  Effect in female hair loss: small positive affect

## C[C@]12CC[C@H]3[C@@H](CCC4=CC(=O)CC[C@@]43C)[C@@H]1CC[C@@H]2O [testosterone]
[3]; [6]
  fold induction at 0.01 µM: 2
[3]; read-out: Mean fold increase in aromatase activity (+/- SEM)
  fold induction at 0.01 µM: 2.69 ± 0.38
[3]; pre-incubation with 10 nmol, 19 fibroblast cell lines, p<0.02
  Mean fold increase in aromatase activity (+/- SEM): 2.69+/-0.38 fold
[3]; separate experiments on three cell lines, range of concentrations, at 10 nmol (maximal for testosterone)
  Fold increase in aromatase: twofold
[4]
  Induction of aromatase in dermal papilla cells: failed to induce aromatase

B1: aromatase (Homo sapiens) (protein)
chain: MVLEMLNPIHYNITSIVPEAMPAATMPVLLLTGLFLLVWNYEGTSSIPGPGYCMGIGPLISHGRFLWMGIGSACNYYNRVYGEFMRVWISGEETLIISKSSSMFHIMKHNHYSSRFGSKLGLQCIGMHEKGIIFNNNPELWKTTRPFFMKALSGPGLVRMVTVCAESLKTHLDRLEEVTNESGYVDVLTLLRRVMLDTSNTLFLRIPLDESAIVVKIQGYFDAWQALLIKPDIFFKISWLYKKYEKSVKDLKDAIEVLIAEKRRRISTEEKLEECMDFATELILAEKRGDLTRENVNQCILEMLIAAPDTMSVSLFFMLFLIAKHPNVEEAIIKEIQTVIGERDIKIDDIQKLKVMENFIYESMRYQPVVDLVMRKALEDDVIDGYPVKKGTNIILNIGRMHRLEFFPKPNEFTLENFAKNVPYRYFQPFGFGPRGCAGKYIAMVMMKAILVTLLRRFHVKTLQGQCVESIQKIHDLSLHPDETKNMLEMIFTPRNSDRCLEH
[5]
  Km: 25 nmol
